Experimental data reported in PMC5995255, “CD44 positive and sorafenib insensitive hepatocellular carcinomas respond to the ATP-competitive mTOR inhibitor INK128” (Oncotarget, 2018).

Experiments:
phosphorylation of S6K = test: Immunoblotting of phosphorylated S6K; format: cell-based, human; settings: CD44high cells; 48 h
Protocol: (§1) Cell protein lysates (20–30 μg) were separated on NuPAGE 4–12% Bis-Tris gels (Novex) electrophoretically and transferred to polyvinylidene difluoride membranes (Roche). Membranes were blocked for 1 h with 5% Bovine Serum Albumin in Tris-buffered saline containing 0.05% Tween 20 and incubated overnight with primary antibody. The following primary antibodies were used: anti-CD44 (Cell signaling, #3578), anti-vimentin (Abcam, ab92547), anti-total S6K (Cell signaling, # 2708), anti-phosphorylated S6K (Cell signaling, #9234), anti-total 4EBP-1 (Cell signaling, #9644), anti-phosphorylated 4EBP-1(Cell signaling, #2855) and anti-PARP (Cell signaling # 9532) Anti-GAPDH (Santa Cruz Biotechnology, sc-32233) and anti-β actin (Cell Signaling, 4970S) antibodies were used as loading controls. A secondary anti-rabbit (Cell Signaling) or anti-mouse immunoglobulin G (IgG) antibody peroxidase conjugate (GE Healthcare) was detected using ECL Western Blotting Analysis System (Amersham Biosciences).

SNU423 cells = test: Wound healing (in vitro migration) assay; format: cell-based, human; settings: 500 nM; 30 h migration
Protocol: SNU423 cells were treated with either INK128 or everolimus at 500 nM or vehicle control (1% DMSO). At 24 h after treatment or transfection, 70 μl of the treated cells (3 × 10^5 cells/mL) was placed into each well of ibidi culture-insert (ibidi, LLC). After an overnight incubation, the culture insert was removed to create a cell-free gap in a monolayer of the cells. The gap closure area was photographed and analyzed by Tscratch software. Wound healing assay was further performed using Huh7 and PLC/PRF/5 cells to determine the effects of CD44 overexpression of migration. The percentage of the gap closure area based on the initial point at time zero was calculated from at least two independent experiments.

[1] = tested on: SK-Hep1 subcutaneous xenografts; test: SK-Hep1 xenograft efficacy study; format: in vivo, athymic nude mice
Protocol: Immunodeficient athymic nude male mice (8 weeks) were obtained from Charles River laboratories and kept in the University's animal housing facility. SK-Hep1 cells were prepared from a low-passage, logarithmically growing population of cells. SK-Hep1 (3 × 10^6 cells) were suspended in 150 ul of Matrigel (Corning, NY, USA) and injected subcutaneously into the right flank of the mice. Three weeks after implantation, tumor sizes were measured using a Fisherbrand™ Traceable™ Digital Caliper (Thermo), the animals were randomized based on tumor size, and treatment was initiated. Tumor size measurements were taken twice a week throughout the treatment period.
Athymic nude mice bearing SK-Hep1 tumors were randomized into four groups (n = 10 per group); vehicle, sorafenib, INK128 and combination. Sorafenib (10 mg/kg) was prepared as a 4× stock solution in cremophor EL:ethanol (50:50), and diluted using water on the day of the treatment. Vehicle and sorafenib groups received their respective treatments every day via oral gavage. INK128 (3 mg/kg) was prepared in 10% DMSO and dosed via oral gavage every other day. The combination group received a daily dose of sorafenib (10 mg/kg) along with INK128 (3 mg/kg) every other day. Mice were monitored every day, and body weight and tumor size measurements were recorded twice a week throughout the treatment period. Tumor volume was calculated using the equation V= ½ × L × W^2. Treatment was continued for 24 days after which the animals were euthanized. Tumor growth is represented as percentage change from baseline tumor volume.

phosphorylation of 4EBP1 = test: Immunoblotting of phosphorylated 4EBP1; format: cell-based, human; settings: CD44high cells; 48 h
Protocol: as §1

[2] = tested on: CD44high HCC cells (SNU423, SNU449, SK-Hep-1); test: Cell proliferation, WST-1 assay, CD44high HCC cells; format: cell-based, human
[3] = tested on: CD44 and vimentin protein expression in SNU423 cells; test: Immunoblotting of CD44 and vimentin protein; format: cell-based, human; settings: 48 h; SNU423 (rapalogs also SNU449)
Protocol: as §1

[4] = INK128 plasma pharmacokinetic study; format: in vivo, ICR mice
Protocol: All animal experiments were carried out under protocols approved by the Institutional Laboratory Animal Care and Use Committee at the Ohio State University. Imprinting control region (ICR) female mice (6 weeks) were obtained from Charles Rivers (Wilmington, MA, USA). Mice were acclimated in the animal housing facility for one week before the start of the study. After overnight fasting, INK128 (3 mg/kg) was administered by oral gavage (PO) in 10% DMSO. At different time points, mice were euthanized by carbon dioxide asphyxiation, and blood was immediately collected by cardiac puncture into lithium heparinized tubes (BD Microtainer, Becton, Dickson and Company, NJ, USA). Blood samples were centrifuged at 6000 × g for 5 min at 4°C. Plasma was collected and kept on dry ice before being stored at −80°C until analysis.
Plasma samples were thawed on ice. Blank mouse plasma was used for standard curves. Plasma aliquots (100 ul) were spiked with hesperetin (10 ul, 5000 ng/ml) as an internal standard and mixed by vortexing. Drugs were extracted with simple protein precipitation using cold acetonitrile, and the mixture was centrifuged at 13000 × g for 10 min. The supernatant was collected and dried under nitrogen. Dried samples were reconstituted with 200 ul 1% formic acid. Samples were analyzed using liquid chromatography–tandem mass spectrometry (LC-MS/MS) system consisting of Thermo Accela UHPLC pump, Thermo PAL autosampler, and Thermo TSQ Discovery triple quadruple mass spectrometer (Thermo, Waltham, MA, USA). Chromatographic separation was done using an Agilent Zobrax Extend C-18 column. Linear gradient elution was used at a flow rate of 400 ul/min, with a mobile phase of […] and 95% acetonitrile, modified with 0.2% formic acid. Non-compartmental analysis of the pharmacokinetic parameters as well as compartmental model fitting of the data was carried using Phoenix® 7.0 (Certara, New Jersey, USA).

[5] = tested on: sorafenib resistant Huh7 cells; test: Cell proliferation, WST-1 assay, sorafenib resistant Huh7; format: cell-based, human; settings: 72 h
Protocol: A sorafenib-resistant Huh7 cell line was established by long term exposure to incremental concentrations of sorafenib (LC Laboratories, USA) as reported. Following six months of culture in 10 cm cell culture dishes, resistant cells were diluted out in 96 well plates and single cell clones were selected and scaled up to be used in further experiments.

[6] = tested on: Huh7CD44, PLC/PRF/5CD44, Huh7EV and PLC/PRF/5EV cells; test: Cell proliferation, WST-1 assay, CD44 overexpressing versus empty vector cells; format: cell-based, human; settings: 72 h
Protocol: An optimized DNA fragment for CD44 overexpression was designed and ordered from Invitrogen using GeneArt® Gene Synthesis. The optimized DNA fragment was cloned using GeneArt® Seamless Cloning technology into a p-EGFP-C1 vector graciously obtained from Matthew Wood's Lab. Huh7 and PLC/PRF/5 cells (CD44low) were transfected with 1500 ng of either CD44 vector or empty vector using Lipofectamine 3000 (Invitrogen). Forty-eight h after transfection, cells were selected using 150 μg/ml hygromycin (Life Technologies). Western blotting was used to confirm successful transfection and expression of CD44.

[7] = tested on: CD44 or vimentin mRNA in SNU423 cells; test: qRT-PCR of CD44 and vimentin mRNA; format: cell-based, human; settings: 500 nM; 48 h
Protocol: Total RNA was isolated from ATP-competitive mTOR inhibitor treated cells using miRNeasy® Mini kit (Qiagen). cDNA was synthesized according to the manufacturer's protocol (Invitrogen). Five hundred ng of total RNA was used to synthesize cDNA using random primers. cDNA was analyzed for gene expression using gene specific primers (IDT) and the Express SYBR® GreenER qPCR super mix (Invitrogen). Data were normalized to 18S rRNA and the relative expression of genes was presented using the comparative CT method. The following primers were used; CD44: 5′-TGCAGTT […]-3′ (forward) and 5′-[…]-3′ (reverse), Vimentin: 5′-CAGC […]-3′ (forward) and 5′-ATCCT […]-3′ (reverse), 18S: 5′-GT […]-3′(forward) and 5′-CCAT […]-3′(reverse)

[8] = tested on: HCC cell lines (SNU423, SNU449 and Huh7); test: Cell proliferation, WST-1 assay, three HCC cell lines; format: cell-based, human; settings: 48 h
[9] = 3 mg/kg oral gavage, single dose, plasma
[10] = female, ICR, mouse, plasma, po, 3 mg/kg, 3 mg/kg oral gavage, single dose
[11] = female, ICR, mouse, 3 mg/kg oral gavage, single dose, plasma

Compound: CC(C)n1nc(-c2ccc3oc(N)nc3c2)c2c(N)ncnc21 [INK128]
- phosphorylation of S6K (phosphorylation of S6K): inhibited
- decrease of cell movement compared to vehicle control (SNU423 cells): 50%
- reduction of tumor burden compared to vehicle control or sorafenib alone ([1]; 3 mg/kg every other day oral): up to 30%
- reduction in tumor volume (from baseline) ([1]; INK128 3 mg/kg every other day oral, alone or with sorafenib 10 mg/kg daily, 24 days): 24%
- phosphorylation of 4EBP1 (phosphorylation of 4EBP1): inhibited
- reduction of proliferation in CD44high compared to CD44low cells ([2]; 72 h, CD44low: Huh7, PLC/PRF/5, HepG2): more effective
- inhibition at 0.1 µM ([2]; Homo sapiens, 100 nM, CD44high cells (Figure 1C), read-out: inhibition in cellular proliferation): 60%
- anti-proliferative activity versus allosteric mTOR inhibitors ([2]; SNU423 and SNU449 cells, 48 h): better anti-proliferative activity than rapamycin and everolimus
- CD44 and vimentin protein expression [3]: great reduction
- time with drug concentrations greater than 100 nM ([4]; 3 mg/kg oral gavage): approximately 16 h
- CL [4, 9]: 0.000582 L/min
- Cmax [4, 9]: 2030 nM
- tolerability ([4]; 3 mg/kg oral, all animals of the pharmacokinetic study): well tolerated
- Cmax [4, 10]: 2030 nM
- Tmax [4, 10]: ≤ 0.25 h
- concentration at 24 h ([4]; female, ICR, mouse, plasma, 3 mg/kg oral gavage, 24 h, read-out: plasma concentration 24 h post dose): 24.6 nM
- AUC(0-t) [4, 11]: 7.38 µM·h
- half-life [4, 11]: 1.81 h
- anti-proliferative effects versus wildtype CD44low Huh7 cells [5]: greater anti-proliferative effects
- anti-proliferative response of CD44 expressing cells versus empty vector cells ([6]; 500 nM): responded better
- CD44 or vimentin mRNA [7]: no change

Compound: CO[C@H]1C[C@@H]2CC[C@@H](C)[C@@](O)(O2)C(=O)C(=O)N2CCCC[C@H]2C(=O)O[C@H]([C@H](C)C[C@@H]2CC[C@@H](O)[C@H](OC)C2)CC(=O)[C@H](C)/C=C(\C)[C@@H](O)[C@@H](OC)C(=O)[C@H](C)C[C@H](C)/C=C/C=C/C=C/1C [rapamycin]
- proliferation (lowest level reached) [8]: ≥ 40%
- phosphorylation of S6K (phosphorylation of S6K): blocked
- phosphorylation of 4EBP1 (phosphorylation of 4EBP1): did not inhibit
- CD44 and vimentin protein expression [3]: did not alter

Compound: CNC(=O)c1cc(Oc2ccc(NC(=O)Nc3ccc(Cl)c(C(F)(F)F)c3)cc2)ccn1 [sorafenib]
- tumor size increase compared to baseline ([1]; 10 mg/kg daily oral gavage, 24 days): 46%
- inhibition in tumor growth compared to vehicle control ([1]; 10 mg/kg daily oral, not significant): approximately 15%
- ability to reduce proliferation as a function of CD44 protein [6]: no difference

Compound: CO[C@H]1C[C@@H]2CC[C@@H](C)[C@@](O)(O2)C(=O)C(=O)N2CCCC[C@H]2C(=O)O[C@H]([C@H](C)C[C@@H]2CC[C@@H](OCCO)[C@H](OC)C2)CC(=O)[C@H](C)/C=C(\C)[C@@H](O)[C@@H](OC)C(=O)[C@H](C)C[C@H](C)/C=C/C=C/C=C/1C [everolimus]
- proliferation (lowest level reached) ([8]; even at 5000 nM): ≥ 40%
- phosphorylation of S6K (phosphorylation of S6K): blocked
- decrease of cell movement compared to vehicle control (SNU423 cells): 20%
- phosphorylation of 4EBP1 (phosphorylation of 4EBP1): did not inhibit
- CD44 and vimentin protein expression [3]: did not alter
